Measured values from US9114158B2, “Compounds and methods of use in ablative radiotherapy” (The Johns Hopkins University, priority 2011, dated 2015).

Experiments:
[1] = target: T1, DDX3 (Homo sapiens, UniProt O00571); assay: DDX3 helicase unwinding assay with duplex oligos; type: biochemical; conditions: 100 μM RK-33, over a period of 80 minutes
T1 construct: made in house; host or cells: pET system (Novagen); E. coli is my own knowledge of the pET system
Text: FIG. 4 is a chart showing RK-33 inhibits helicase activity of DDX3.
Generating small molecular inhibitors of DDX3 function. As loss of DDX3 function abrogated colony forming abilities along with increased expression in lung carcinoma samples, a search was initiated to identify molecules that could target a functional substrate binding site of DDX3 protein. Initial work generated a fused diimidazodiazepine ring molecule (RK-33) to target RNA helicase. To confirm the functional activity of RK-33 on DDX3, an in vitro assay was carried out to determine the effects of RK-33 on helicase activity. DDX3 protein was synthesized using the pET system from Novagen. Following DDX3 purification, the unwinding assays were performed using duplex oligos, purified DDX3 and RK-33. Quantification was done by evaluating the pixel density of the native duplex oligos and the unwound oligos.

[2] = tested on: H23; assay: MTS assay, lung cancer cell line H23; type: cell-based
Experimental: (§1) FIG. 5 is a plot showing the effect of RK-33 on two lung cancer cell lines. Lung cancer cell lines were incubated with different concentrations of RK-33. At day 3, MTS assays were performed to determine the percentage of metabolically active cells. The experiments were repeated in triplicate. The IC50 values for H23 and A549 are 3.5 and 5 μM respectively.
To study the effects of RK-33 on cell growth and proliferation, lung cancer cell lines (H23 and A549) were used for the initial studies. […] To the best of our knowledge, this is the first data set of evaluating the efficacy of a small molecule inhibitor of DDX3 to kill lung cancer cells.

[3] = tested on: A549; assay: MTS assay, lung cancer cell line A549; type: cell-based
Experimental: as §1, with “respectively. […] Experiments were performed in triplicate. To study the effects of RK-33 on cell growth and proliferation, lung cancer cell lines (H23 and A549) were used for the initial studies. […] To the best of our knowledge, this is the first data set of evaluating the efficacy of a small molecule inhibitor of DDX3 to kill lung cancer cells.” for “respectively.”

[4] = tested on: Cells engineered to express a hypoxia induced red fluorescent protein (tdTomato); assay: Cell death under hypoxic conditions (CoCl2 hypoxia mimetic); type: cell-based; conditions: CoCl2 24 hours, then RK-33 72 hours
Experimental: Cells engineered to express a hypoxia induced red fluorescent protein (tdTomato) were incubated with CoCl2 (hypoxia mimetic compound) for 24 hours, following which RK-33 was added and incubated for 72 hours. Photomicrographs were taken at 20×. Experiments were repeated twice. Effect of hypoxia on the functional activity of RK-33 to induce cell death. During solid tumor biogenesis, regions of hypoxia develop within the tumor due to inadequate and poorly formed vasculature. […] In addition, some have posited that tumor hypoxia is a major limiting factor of the curability by SABR at lower radiation dose. […] To evaluate efficacy of RK-33 to induce cell death under hypoxic conditions, cells were incubated with CoCl2 (hypoxia mimetic compound) for 24 hours, following which RK-33 was added and incubated for 72 hours.

[5] = tested on: A549 cells; assay: Combination of RK-33 and radiation in A549 cells, Chou-Talalay analysis; type: cell-based; conditions: 4 and 6 μM RK-33 with 2 and 7 gray of radiation
Experimental: FIG. 8 is a set of bar graphs depicting the effect of radiation and RK-33 on A549 cells. […] Experiments were performed in triplicate.
Clonogenic assays. About 1×10^5 A549 cells were treated with RK-33 (1-6 μM) and to increasing dose of IR (1-20 Gy). After 24 hours, 500 cells from each combination treatment will be plated into a 6-well plate. Following incubation for 1-3 weeks, colonies were fixed in glutaraldehyde (6.0% v/v), stained with crystal violet (0.5% w/v) and counted using a stereomicroscope. Clusters of >50 cells (i.e., six cell doubling times) were scored as colonies. The amount of radiosensitization by RK-33 was determined using the Chou-Talalay equation to determine the combination index (CI). A CI 0.9-1.1 was indicative of additivity while a CI <0.9 indicated synergism. The survival curves, S, were fit to the linear-quadratic model S=exp(−αD-βD2) to determine classical parameters of radiation sensitivity.
Combinatorial effect of RK-33 and radiation in lung cancer cell line, A549. Given the current treatment protocol for lung cancer patients, which includes chemotherapy and radiation, the cell killing abilities of RK-33 was evaluated in combination with radiation in a chemotherapy/radiation resistant lung cancer cell line, A549 (FIG. 7). […] For this experiment, RK-33 below the IC50 value was used to determine if there was any additive or synergistic effect. […]

[6] = Toxicity of RK-33 in SCID mice, pathological examination after necropsy; type: in vivo
[7] = Biodistribution of RK-33 in mice by LC/MS/MS; type: in vivo; conditions: I.P. single dose of 20 mg/kg; 30 minutes, 60 minutes and 24 hours
Text: FIG. 9 is a set of curves illustrating the biodistribution of RK-33 in mice at different time intervals using an LC/MS/MS method. A total of five mice per time point were used for this study.
Analysis of the toxicity of RK-33 in SCID mice. […] Subsequently, we carried out pharmacokinetics in multiple tissue compartments. For this a LC/MS/MS method was developed for determination of RK-33 in mouse plasma (FIG. 9-inset). Sample preparation involved acetonitrile precipitation and separation of RK-33 and the internal standard, temazepam, was achieved on a Waters Xterra column. […] The animals were injected I.P. (single dose of 20 mg/kg with five animals per arm) and the tissue harvested at different time intervals (30 minutes, 60 minutes and 24 hours) and analyzed.

[8] = tested on: lung tumors in CRT mice; assay: RK-33 and radiation in CRT autochthonous lung tumor mice, microCT tumor volume; type: in vivo
Text: FIG. 11 is a bar graph showing the chemosensitization of RK-33 with radiation to reduce lung tumors in CRT mice. Following RK-33 and radiation treatment, the animals were imaged using microCT (data not shown). The bar graph depicts the reduction of lung tumor volume in n=8 animals per group. The tumor volumes were quantified from the CBCT data set using the image and volume contouring utility of the Pinnacle3 Radiation Therapy Planning software v.8.1y (Philips Inc., Madison, Wis.) used in the clinic for human patients. Each CBCT data set contains full 3D volumetric data for the tumor burden estimation.
Generating the CRT mice and drug treatment. As shown in the results, the functional utility of CRT mice was validated. CRT mice are generated from combinations of bi-transgenic mice; e.g., CT X CR. CRT mice were activated shortly after weaning, four-five weeks old, by doxycycline administered in their drinking water (up to 2 mg/ml) in a total volume of 350 ml to simultaneously activate both Twist1 and KrasG12D transgenes. Fresh doxycycline containing water was administered weekly. Ten weeks post transgene induction, the mice were imaged by microCT to determine tumor load. Induction of the transgenes and imaging the tumor load by microCT were continuous (weekly) till the end of the experiment. Following induction and establishment of lung tumors, RK-33 (1 mM equivalent to 40 mg/Kg) was injected intraperitoneally in combination with radiation at schedules described in the table below. The number of animals used in each group was 25.
MicroCT procedures. Presently a small animal radiation research platform for radiation treatment of animals was developed. […]
Thoracic image-guided irradiation. […] Fifteen Gy radiation calculated at the isocenter was delivered using a single posterior field. […]
Endpoints for in vivo experiments. […] Animals following treatment are monitored daily by animal care staff and 3×/week by investigators for signs of mortality and morbidity. […]

T1 sequence (O00571 whole entry): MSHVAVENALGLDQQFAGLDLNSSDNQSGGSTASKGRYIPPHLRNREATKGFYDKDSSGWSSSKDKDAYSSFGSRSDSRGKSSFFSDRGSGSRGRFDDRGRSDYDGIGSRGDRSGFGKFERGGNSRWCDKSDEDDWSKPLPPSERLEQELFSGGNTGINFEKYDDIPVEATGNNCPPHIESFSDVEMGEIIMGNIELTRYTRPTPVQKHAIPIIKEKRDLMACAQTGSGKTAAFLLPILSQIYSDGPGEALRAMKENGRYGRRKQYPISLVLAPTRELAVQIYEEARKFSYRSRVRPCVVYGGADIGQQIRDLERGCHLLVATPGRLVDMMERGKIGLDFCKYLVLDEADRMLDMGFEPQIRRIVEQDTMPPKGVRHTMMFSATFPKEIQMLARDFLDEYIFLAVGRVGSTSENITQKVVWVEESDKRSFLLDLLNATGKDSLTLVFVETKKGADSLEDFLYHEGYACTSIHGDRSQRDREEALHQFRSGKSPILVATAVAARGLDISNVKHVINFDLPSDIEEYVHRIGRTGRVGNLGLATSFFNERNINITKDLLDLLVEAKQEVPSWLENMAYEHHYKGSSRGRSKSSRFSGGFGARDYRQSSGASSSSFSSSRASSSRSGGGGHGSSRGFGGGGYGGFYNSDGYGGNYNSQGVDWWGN

reduction of unwinding of the duplex oligos [1]	IC50 ([2]; Homo sapiens, NCI-H23, 72 h, H23, MTS at day 3) [µM]	IC50 ([3]; Homo sapiens, 72 h, A549, MTS at day 3) [µM]	brain exposures [7]	Compound	effect on cell growth and proliferation ([2]; H23, 8 μM RK-33)	sensitivity of A549 cells in MTS assay [3]	effect on cell growth and proliferation ([3]; A549, 8 μM RK-33)	activity to induce cell death under hypoxic conditions [4]	combination effect with radiation on cell death (Chou-Talalay) [5]	pathological examination of all tissues following necropsy [6]	target tissue concentrations [7]	tumor volume reduction, RK-33 combined with conventional fractionated radiation ([8]; 3 Gy x10)	tumor response, single agent ([8]; RK-33 1 mM i.p. 3 times a week alone, microCT)	tumor response, RK-33 combined with SABR ([8]; RK-33 1 mM i.p. 3 times a week, 1 week before and 1 week after 15 Gy whole thorax SABR, microCT and H&E)
at least 60%	3.5	5	well managed	COc1ccc(Cn2c3ncnc4c(ncn4Cc4ccc(OC)cc4)c-3nc2=O)cc1 [RK-33]	efficiently ablate	sensitive	efficiently ablate	retain its activity both under normoxic and hypoxic conditions	significant synergistic effect	no tissue damage	well above effective killing concentrations	no synergy	stasis or perhaps slight regression	dramatic tumor regression
				N.N.O=C([O-])C1(C(=O)[O-])CCC1.[Pt+2] [carboplatin, reference compound]		resistant								
